Legend:
[1] = system: beagles; assay: Follow-up 4-week study 003: EC tablets vs PG alone in gelatin capsule, nephrotoxicity; assay type: in vivo, beagle dog; conditions: dogs, target PG 200 mg/kg/day once daily for 26 days, data not shown
[2] = system: dog RPTECs; assay: GSH-Glo glutathione assay; assay type: cell-based
Description: (§1) Frozen RPTECs vials were removed from liquid nitrogen storage and placed in a 37 °C water bath until the contents were completely thawed. The cells were gently resuspended and dispensed into a cell culture flask at a seeding density of ∼7500 cells/cm^2. The flask was placed in a 37 °C, 5% CO2 incubator. Cell cultures were given fresh medium the following morning and then every other day until the cell culture was approximately 90% confluent. When the cell culture was 90% confluent, medium was removed and the cells were rinsed with warmed PBS. Cells were harvested and split into new flasks based on a cell density of 7500 cells/cm^2. Cells were incubated at 37 °C for 3 days, with fresh medium added each day. Cells were harvested and diluted with growth medium to a density of 200,000 cells/mL. 100 μL of cell suspension per well (20,000 cells/well) was added to a clear-bottom 96-well microplate for luminescence assays. The plated cells were incubated in the 37 °C incubator for 3 days.
(§2) Each test compound (PG, GA, 4OMPG and 4OMGA) was initially reconstituted using DMSO at a concentration of 250 mg/mL. Serial dilutions of each compound were performed to reach concentrations of 4000 μM, 2000 μM, 1000 μM, 500 μM, 250 μM, 125 μM, 62.5 μM, 31.3 μM using warmed fresh supplemented medium with 0.4% (v/v) DMSO for all concentration levels. 100 μL of media containing the compound solution was added to the cells. Final concentrations of the compounds were 2000 μM, 1000 μM, 500 μM, 250 μM, 125 μM, 62.5 μM, 31.3 μM, 15.7 μM. AZ13599185 (tubulysin, 100 or 500 ng/mL) or cisplatin (30 μg/mL) and buthionine sulfoximine (BSO, 200 μM) were used as positive controls for CTG and GSH assays, respectively. 0.2% (v/v) DMSO in medium was used as the control for both assays, corrsponding to the final cocnetration of DMSO in the well. Three replicates for each compound at each concentration were prepared. Six replicates of positive or negative controls were prepared. Cells were incubated at 37 °C for approximately 48 h.
(§3) Cell media were removed and cells were washed twice with 200 μL of PBS buffer per well. CTG and GSH assay reagents were added to the wells and the assays were performed following the protocols of the Promega assay kits. Briefly, to perform the CTG assay, 100 μL of CTG solution was added into each well. The plate was gently shaken and incubated in the dark for 30 min and luminescence was measured using a PerkinElmer VICTOR X3 plate reader. To perform the GSH assay, luciferin-NT substrate and glutathione S-transferase were mixed into the GSH-GLo solution. 100 μL of the mixed solution was added into each well. The plate was gently shaken and incubated in the dark for at least 30 min. 100 μL of Luciferin Detection Reagent was added per well. The plate was gently shaken and incubated in the dark for at least 15 min. Luminescence was measured using a PerkinElmer VICTOR X3 plate reader.
(§4) For cell-based assays, data was normalized to the negative control. Cell viability and GSH level were expressed as Cell viability or GSH level=Luminescence(each well)/Luminescence(average of DMSO negative control)

[3] = system: human RPTECs; assay: GSH-Glo glutathione assay; assay type: cell-based
Description: as §1, §2, §3, §4

[4] = Exposure comparison of PG and phase-I and phase-II metabolites in dog and human plasma; conditions: oral EC MEDI7219 tablets; samples through 8 h; human PG 800 mg (N = 8), dog PG 200 mg/kg/day (N = 6)
Description: Dog blood was collected via jugular vein in potassium (K2) EDTA tubes and processed to plasma. Samples were centrifuged at approximately 3000 rpm for 5 min at approximately 4 °C within 30 min of collection. Plasma samples were acidified with 1% (v/v) formic acid (FA) to avoid degradation of PG and metabolites in plasma within 20 min of the start of centrifugation and then stored frozen (≤-60 °C). Acidified plasma was extracted using internal standard-spiked solution (100 mM ammonium bicarbonate: acetonitrile = 1:4). Samples were then centrifuged to collect supernatant, followed by drying to completion. The dried samples were reconstituted with 200 uL of 0.1% (v/v) formic acid in water. Samples were vortexed and centrifuged before injection. In order to assess potential impact of hemolysis on qualification of PG and its metabolites, hemolyzed plasma was prepared by spiking fully hemolyzed whole blood at an indicated percentage into plasma.
Separations were conducted on a reversed-phase column (Phenomenex, Kinetex F5, 2.6 μm 100 Å, 100 × 4.6 mm) at a flow rate of 0.7 mL/min at 40 °C. Mobile phase A was 0.1% formic acid in water and mobile phase B was 0.1% formic acid in methanol. The samples were analyzed on a SCIEX 6500+ QTRAP under negative ESI mode. The total run time was 5.5 min. Eight calibration standards and three quality control (LQC, MQC and HQC) samples were used for quantification.
The primary metabolites of PG were measured in dog and human plasma following oral administration of EC MEDI7219 tablets to examine a potential mechanism of the PG-mediated renal toxicity in dog and its possible translatability to humans. Plasma concentrations of PG, its phase-I metabolites GA and 4OMGA and phase-II glucuronide and glutathione conjugates were measured. The human and dog samples, collected through 8 h after administration, were analyzed and the results were compared (Figure , Figure S5). Based on allometric scaling method the highest daily dose administered in humans was approximately 8-fold less compared with the dose level tested in dogs.
Human (H) data is in black. Dog (D) data is in red (study 002). Concentration (mM) is in log10 scale. Data was normalized to PG dose (mg/kg/day). N = 8 for human (PG dosed at 800 mg with MEDI7219 tablets). N = 6 for dogs (PG dosed at 200 mg/kg/day). Below LLOQ values were set to 1/2 LLOQ for the calculation.

[5] = ~48 h exposure, normalized to DMSO control

For `CCCOC(=O)c1cc(O)c(O)c(O)c1` [PG, propyl gallate], the “Nephrotoxicity / kidney injury” value [1] was “did not result in nephrotoxicity”, the “GSH levels at high concentrations” value ([2]; ~48 h, high concentrations) was “reduction of GSH levels” and the “Glutathione (GSH) levels” value [2, 5] was “not in dog cells”. The “GSH levels at high concentrations” value ([3]; ~48 h, high concentrations) was “reduction of GSH levels”, the “Glutathione (GSH) levels” value [3, 5] was “induced” and the “Plasma exposure, humans compared with dogs” value [4] was “comparable between the two species”.
